From US20260027119A1, “INHIBITORS OF CALCIUM/CALMODULIN-DEPENDENT PROTEIN KINASE II AND THEIR USES” (priority 2022, published 2026)

Assays:
CaMKII [1] = experiment: CaMKII activation in cardiomyocytes stimulated by field pacing (simulated tachycardia); format: cell-based
Excerpt: FIG. 4A, FIG. 4B, and FIG. 4C show compounds that inhibit CaMKII in cardiomyocytes. CaMKII is stimulated in cardiac cells by simulating tachycardia with field pacing. […] When drug concentration is adjusted to match their respective maximum human plasma concentration, four out of the five compounds were able to ameliorate CaMKII (FIG. 4B, FIG. 4C).
(§1) In some embodiments, the presently disclosed subject matter provides a CaMKII activity biosensor, referred to herein as a CaMKII Activity Reporter (CaMKAR), that is tractable for high-throughput screens. Using this sensor, a library of compounds that are safe for human use (i.e., Food and Drug Administration (FDA)-, European Medicines Agency (EMA)-, China Food and Drug Administration (CFDA)-, and Pharmaceuticals and Medical Devices Agency (PMDA)-approved compounds) was screened for previously unidentified CaMKII inhibitors.

[2] = system: constitutively active CaMKIIδ; experiment: CaMKII inhibition in HEK293 cells expressing constitutively active CaMKIIδ; format: cell-based
Excerpt: (§2) FIG. 1A, FIG. 1B, FIG. 1C, and FIG. 1D show high-throughput screening to identify CaMKII inhibitors. A stable human cell line that expresses CaMKAR and constitutively active human CaMKIIδ (cardiac isoform) was developed. […] In these cells, the JHDLv3 library, which contains 4,475 compounds that are approved for human use, was screened (FIG. 1B). This primary screen identified 118 candidate compounds, which were subscreened using a CaMKAR in vitro assay (FIG. 1C). Validation of these hits in HEK293 cells and by a third-party laboratory led to five potent inhibitors.

[3] = system: constitutively active human CaMKIIδ (cardiac isoform); experiment: High-throughput CaMKAR screen in stable human cell line expressing CaMKAR and constitutively active human CaMKIIδ; format: cell-based
Excerpt: as §2, §1

CaMKII [4] = biological target: CaMKII (Homo sapiens, UniProt Q13557); experiment: CaMKAR in vitro assay (subscreen of primary hits); format: biochemical
Chain of CaMKII (Homo sapiens, UniProt Q13557) (Q13557 whole entry): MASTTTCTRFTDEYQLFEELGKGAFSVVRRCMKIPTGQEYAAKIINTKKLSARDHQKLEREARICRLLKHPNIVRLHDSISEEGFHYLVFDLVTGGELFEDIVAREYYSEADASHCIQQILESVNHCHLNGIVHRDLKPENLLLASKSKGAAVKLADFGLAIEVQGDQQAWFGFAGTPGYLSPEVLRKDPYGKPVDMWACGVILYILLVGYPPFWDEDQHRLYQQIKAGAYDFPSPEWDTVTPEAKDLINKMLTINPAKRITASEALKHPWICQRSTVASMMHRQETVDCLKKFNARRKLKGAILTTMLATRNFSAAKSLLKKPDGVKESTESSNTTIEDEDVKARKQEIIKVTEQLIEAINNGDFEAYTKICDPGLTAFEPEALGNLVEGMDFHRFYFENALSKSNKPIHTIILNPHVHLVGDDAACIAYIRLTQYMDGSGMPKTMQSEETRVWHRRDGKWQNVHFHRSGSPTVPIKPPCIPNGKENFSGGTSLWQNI
Excerpt: as §2

SMILES: CCS(=O)(=O)N1CC(CC#N)(n2cc(-c3ncnc4[nH]ccc34)cn2)C1 [Baricitinib]
- CaMKII activity in rat cardiac cells (CaMKII [1]): prevented CaMKII activity
- Potency of CaMKII inhibition relative to tool inhibitor AS100397 [2]: more potent
- Inhibition of cardiac CaMKII (CaMKIIδ) in human cells ([3]; human cells): potently inhibited

SMILES: CN[C@@H]1C[C@H]2O[C@@](C)([C@@H]1OC)n1c3ccccc3c3c4c(c5c6ccccc6n2c5c31)C(=O)NC4 [Staurosporine]
- CaMKII inhibition in CaMKAR in vitro assay (CaMKII [4]): recovered
- CaMKII inhibition reported by CaMKAR in primary screen cell line ([3]; stable human cell line expressing CaMKAR and constitutively active human CaMKIIδ): recovered
